{"source": "patent US8742106B2", "about": "(Novartis AG, priority 2009, dated 2014)", "key": {"human orexin 1 receptors [1]": {"biological_target": "T1, human orexin 1 receptors (Homo sapiens (Human), UniProt O43613)", "T1 sequence (O43613 whole entry)": "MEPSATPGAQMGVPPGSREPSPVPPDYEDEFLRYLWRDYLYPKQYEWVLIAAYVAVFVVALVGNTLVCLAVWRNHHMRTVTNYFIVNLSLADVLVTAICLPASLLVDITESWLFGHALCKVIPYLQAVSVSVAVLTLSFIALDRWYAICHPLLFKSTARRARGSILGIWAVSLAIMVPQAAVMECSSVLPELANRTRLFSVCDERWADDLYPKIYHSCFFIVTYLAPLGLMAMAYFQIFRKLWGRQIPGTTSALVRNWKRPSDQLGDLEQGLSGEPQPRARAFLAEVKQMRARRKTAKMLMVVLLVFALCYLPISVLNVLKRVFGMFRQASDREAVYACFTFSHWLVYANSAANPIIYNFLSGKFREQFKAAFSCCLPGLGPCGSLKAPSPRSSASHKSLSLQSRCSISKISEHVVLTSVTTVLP", "assay": "Calcium Accumulation in Cells (FLIPR), antagonism of orexin A", "format": "cell-based", "conditions": "antagonism of orexin A, Cheng-Prusoff corrected; read-out: FLIPR hOx1R Ki"}, "human orexin 1 receptors [2]": {"biological_target": "T1, human orexin 1 receptors", "assay": "Radioligand Binding Assay I ([125I]orexin A competition, cell membranes)", "conditions": "read-out: binding I hOx1R Kd", "method": "(§1) Radioligand Binding Assay I\n(§2) For crude cell membrane preparations, cells (CHO, Chinese hamster ovary or HEK, human embryonic kidney) expressing human orexin 1 or human orexin 2 receptors, were washed with HEPES (10 mM, pH 7.5), scraped off the culture plates with the same buffer, and centrifuged at 4° C. for 5 min at 2500×g. The cell pellet was either stored at −80° C. or used directly. Before the experiments, cell membranes were re-suspended in binding assay buffer (10 mM HEPES, 0.5% (w/v) bovine serum albumin, pH 7.5) by homogenisation with a Polytron homogeniser at 50 Hz for 20 s. Cell membranes were also used as made available by commercial providers.\n(§3) In initial saturation experiments (to calculate Bmax), cell homogenates (150 μl) were incubated with 25-300 pM of the radioligand ([^125I]orexin A, 50 μl), 8 concentrations in triplicates in the presence or absence Orexin A (1 μM, 50 μl) to define non specific binding. Bound radioactivity was measured, and data were analysed with the program XLFIT or Graphpad Prism. Protein concentration was determined according to the Bradford/BioRad Protein Assay Kit.\n(§4) In competition experiments, cell homogenates (150 μl) were incubated in assay buffer (10 mM HEPES, pH 7.5, 0.5% (w/v) bovine serum albumin, 5 mM MgCl2, 1 mM CaCl2, and tween 0.05%) for 1 h at room temperature with about 100 pM of the radioligand ([^125I]orexin A, 2100 Ci/mmole, 50 μl), and with various concentrations of compounds of the invention (50 μl) in triplicates; non-specific binding was determined in the presence of Orexin A (1 μM). Reactions were terminated by vacuum filtration, 3 washes of ice cold wash buffer (Tris-HCl pH 7.4/10 mM, with NaCl 154 mM)."}, "human orexin 2 receptors [3]": {"biological_target": "T2, human orexin 2 receptors (Homo sapiens (Human), UniProt O43614)", "T2 sequence (O43614 whole entry)": "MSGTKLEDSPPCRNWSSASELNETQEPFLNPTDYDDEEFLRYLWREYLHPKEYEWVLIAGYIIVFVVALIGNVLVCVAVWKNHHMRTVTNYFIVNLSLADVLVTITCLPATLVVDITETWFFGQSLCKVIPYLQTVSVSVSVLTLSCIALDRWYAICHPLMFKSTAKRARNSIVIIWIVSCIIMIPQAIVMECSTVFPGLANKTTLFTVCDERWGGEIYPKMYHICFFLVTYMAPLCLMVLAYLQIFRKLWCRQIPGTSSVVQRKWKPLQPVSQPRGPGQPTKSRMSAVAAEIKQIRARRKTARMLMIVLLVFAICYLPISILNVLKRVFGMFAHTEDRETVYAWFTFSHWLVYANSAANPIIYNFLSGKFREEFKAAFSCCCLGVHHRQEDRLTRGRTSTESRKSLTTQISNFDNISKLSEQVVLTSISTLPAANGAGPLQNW", "assay": "Radioligand Binding Assay I ([125I]orexin A competition, cell membranes)", "conditions": "read-out: binding I hOx2R Kd", "method": "as §1, §2, §3, §4"}, "human orexin 2 receptors [4]": {"biological_target": "T2, human orexin 2 receptors", "assay": "Calcium Accumulation in Cells (FLIPR), antagonism of orexin A", "format": "cell-based", "conditions": "antagonism of orexin A, Cheng-Prusoff corrected; read-out: FLIPR hOx2R Ki", "summary_of_the_method": "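Cells expressing human orexin 2 receptor, loaded with Fluo4-AM (2 μM) plus probenecid (0.1 mM) for 1 h, then washed. Antagonism read as inhibition of the orexin A calcium fluorescence signal (FLIPR).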"}}}
{"compound": "Cc1ccc(-c2nn(C)c3nc(OCC(=O)N[C@@H](C)c4ccccc4)cc(C(F)(F)F)c23)cc1", "note": "[Example 1.48, (S)-2-(1-methyl-3-p-tolyl-4-(trifluoromethyl)-1H-pyrazolo[3,4-b]pyridin-6-yloxy)-N-(1-phenylethyl)acetamide]", "values": [{"measurement": "Ki", "setting": "human orexin 1 receptors [1]", "value": 178, "unit": "nM"}, {"measurement": "Kd", "setting": "human orexin 1 receptors [2]", "value": 490, "unit": "nM"}, {"measurement": "Kd", "setting": "human orexin 2 receptors [3]", "value": 212, "unit": "nM"}, {"measurement": "Ki", "setting": "human orexin 2 receptors [4]", "value": 75, "unit": "nM"}]}
{"compound": "COc1ccccc1-c1nn(C)c2nc(OCC(=O)N[C@@H](C)c3ccccc3)cc(C(F)(F)F)c12", "note": "[Example 1.49, (S)-2-(3-(2-methoxyphenyl)-1-methyl-4-(trifluoromethyl)-1H-pyrazolo[3,4-b]pyridin-6-yloxy)-N-(1-phenylethyl)acetamide]", "values": [{"measurement": "Ki", "setting": "human orexin 1 receptors [1]", "value": 15, "unit": "nM"}, {"measurement": "Kd", "setting": "human orexin 1 receptors [2]", "value": 6, "unit": "nM"}, {"measurement": "Kd", "setting": "human orexin 2 receptors [3]", "value": 715, "unit": "nM"}, {"measurement": "Ki", "setting": "human orexin 2 receptors [4]", "value": 243, "unit": "nM"}]}
{"compound": "C[C@H](NC(=O)COc1cc(C(F)(F)F)c2c(-c3cccc(Br)c3)nn(C)c2n1)c1ccccc1", "note": "[Example 1.58, (S)-2-(3-(3-bromophenyl)-1-methyl-4-(trifluoromethyl)-1H-pyrazolo[3,4-b]pyridin-6-yloxy)-N-(1-phenylethyl)acetamide]", "values": [{"measurement": "Ki", "setting": "human orexin 1 receptors [1]", "value": 77, "unit": "nM"}, {"measurement": "Kd", "setting": "human orexin 1 receptors [2]", "value": 170, "unit": "nM"}, {"measurement": "Kd", "setting": "human orexin 2 receptors [3]", "value": 436, "unit": "nM"}, {"measurement": "Ki", "setting": "human orexin 2 receptors [4]", "value": 201, "unit": "nM"}]}
{"compound": "Cn1nc(-c2ccccc2F)c2c(C(F)(F)F)cc(OCC(=O)N[C@H]3CCc4ccccc43)nc21", "note": "[Example 1.60, (S)-N-(2,3-dihydro-1H-inden-1-yl)-2-(3-(2-fluorophenyl)-1-methyl-4-(trifluoromethyl)-1H-pyrazolo[3,4-b]pyridin-6-yloxy)acetamide]", "values": [{"measurement": "Ki", "setting": "human orexin 1 receptors [1]", "value": 236, "unit": "nM"}, {"measurement": "Kd", "setting": "human orexin 1 receptors [2]", "value": 418, "unit": "nM"}, {"measurement": "Kd", "setting": "human orexin 2 receptors [3]", "value": 144, "unit": "nM"}, {"measurement": "Ki", "setting": "human orexin 2 receptors [4]", "value": 36, "unit": "nM"}]}
{"compound": "Cn1nc(-c2cccc(F)c2)c2c(C(F)(F)F)cc(OCC(=O)N[C@H]3CCc4ccccc43)nc21", "note": "[Example 1.61, (S)-N-(2,3-dihydro-1H-inden-1-yl)-2-(3-(3-fluorophenyl)-1-methyl-4-(trifluoromethyl)-1H-pyrazolo[3,4-b]pyridin-6-yloxy)acetamide]", "values": [{"measurement": "Ki", "setting": "human orexin 1 receptors [1]", "value": 117, "unit": "nM"}, {"measurement": "Kd", "setting": "human orexin 1 receptors [2]", "value": 204, "unit": "nM"}, {"measurement": "Kd", "setting": "human orexin 2 receptors [3]", "value": 89, "unit": "nM"}, {"measurement": "Ki", "setting": "human orexin 2 receptors [4]", "value": 33, "unit": "nM"}]}
{"compound": "COc1ccc(C(C)NC(=O)COc2cc(C(F)(F)F)c3c(-c4ccccc4)nn(C)c3n2)cn1", "note": "(stereo not shown) [Example 1.67, N-(1-(6-methoxypyridin-3-yl)ethyl)-2-(1-methyl-3-phenyl-4-(trifluoromethyl)-1H-pyrazolo[3,4-b]pyridin-6-yloxy)acetamide]", "values": [{"measurement": "Ki", "setting": "human orexin 1 receptors [1]", "value": 27, "unit": "nM"}, {"measurement": "Kd", "setting": "human orexin 1 receptors [2]", "value": 46, "unit": "nM"}, {"measurement": "Kd", "setting": "human orexin 2 receptors [3]", "value": 20, "unit": "nM"}, {"measurement": "Ki", "setting": "human orexin 2 receptors [4]", "value": 2, "unit": "nM"}]}
{"compound": "Cc1nn(C)c(C)c1C(C)NC(=O)COc1cc(C(F)(F)F)c2c(-c3ccccc3)nn(C)c2n1", "note": "(stereo not shown) [Example 1.70, 2-(1-methyl-3-phenyl-4-(trifluoromethyl)-1H-pyrazolo[3,4-b]pyridin-6-yloxy)-N-(1-(1,3,5-trimethyl-1H-pyrazol-4-yl)ethyl)acetamide]", "values": [{"measurement": "Ki", "setting": "human orexin 1 receptors [1]", "value": 8, "unit": "nM"}, {"measurement": "Kd", "setting": "human orexin 1 receptors [2]", "value": 26, "unit": "nM"}, {"measurement": "Kd", "setting": "human orexin 2 receptors [3]", "value": 50, "unit": "nM"}, {"measurement": "Ki", "setting": "human orexin 2 receptors [4]", "value": 10, "unit": "nM"}]}
{"compound": "COc1ccc([C@H](C)NC(=O)COc2cc(C)c3c(C4CC4)nn(C)c3n2)cc1", "note": "[Example 1.71, (S)-2-(3-cyclopropyl-1,4-dimethyl-1H-pyrazolo[3,4-b]pyridin-6-yloxy)-N-(1-(4-methoxyphenyl)ethyl)acetamide]", "values": [{"measurement": "Ki", "setting": "human orexin 1 receptors [1]", "value": 145, "unit": "nM"}, {"measurement": "Kd", "setting": "human orexin 1 receptors [2]", "value": 105, "unit": "nM"}, {"measurement": "Kd", "setting": "human orexin 2 receptors [3]", "value": 63, "unit": "nM"}, {"measurement": "Ki", "setting": "human orexin 2 receptors [4]", "value": 88, "unit": "nM"}]}
{"compound": "Cc1ccc(C(C)NC(=O)COc2cc(C(F)(F)F)c3c(-c4ccccc4)nn(C)c3n2)cn1", "note": "(stereo not shown) [Example 1.77, 2-(1-methyl-3-phenyl-4-(trifluoromethyl)-1H-pyrazolo[3,4-b]pyridin-6-yloxy)-N-(1-(6-methylpyridin-3-yl)ethyl)acetamide]", "values": [{"measurement": "Ki", "setting": "human orexin 1 receptors [1]", "value": 74, "unit": "nM"}, {"measurement": "Kd", "setting": "human orexin 1 receptors [2]", "value": 161, "unit": "nM"}, {"measurement": "Kd", "setting": "human orexin 2 receptors [3]", "value": 87, "unit": "nM"}, {"measurement": "Ki", "setting": "human orexin 2 receptors [4]", "value": 21, "unit": "nM"}]}
{"compound": "C[C@H](NC(=O)COc1cc(C(F)(F)F)c2c(-c3ccccc3)cn(C)c2n1)c1ccccc1", "note": "[Example 6.77, (S)-2-(1-methyl-3-phenyl-4-(trifluoromethyl)-1H-pyrrolo[2,3-b]pyridin-6-yloxy)-N-(1-phenylethyl)acetamide]", "values": [{"measurement": "Ki", "setting": "human orexin 1 receptors [1]", "value": 148, "unit": "nM"}, {"measurement": "Kd", "setting": "human orexin 1 receptors [2]", "value": 501, "unit": "nM"}, {"measurement": "Kd", "setting": "human orexin 2 receptors [3]", "value": 240, "unit": "nM"}, {"measurement": "Ki", "setting": "human orexin 2 receptors [4]", "value": 59, "unit": "nM"}]}
